From PubChem BioAssay (NCI) come the findings set out here.

Assay in all cases: growth of human tumour cells (NCI), 48 h
Assay [1] concerns 786-0 renal.
Assay [2] concerns OVCAR-8 ovarian.
The subject of assay [3] is UO-31 renal.
The subject of assay [4] is HOP-62 NSCLC.
The subject of assay [5] is LOX IMVI melanoma.
Assay [6] has as its system HCC-2998 colon.
Assay [7] concerns SNB-75 CNS.
The test system of assay [8] is KM12 colon.
In assay [9] the test system is EKVX NSCLC.
In assay [10] the test system is SK-MEL-2 melanoma.

The structures appear in SMILES notation.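 Five compound concentrations were applied to cells in 96-well plates for 48 hours; endpoints were derived by simple linear interpolation of the resulting dose-response curve. At the GI50, growth is halved. At the TGI there is no net growth.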

In the case of `C=C1C(=O)O[C@H]2[C@H]1CC/C(Cn1cc(-c3cccc(Cl)c3)nn1)=C\CC[C@@]1(C)O[C@@H]21`, the GI50 in [1] was 0.506 µM; in [2] it was 1.31 µM; in assay [3], 1.08 µM; in assay [4], 1.94 µM; in assay [5] it was 0.285 µM; in [6], 1.64 µM. The GI50 in assay [7] was 1.16 µM; in assay [8], 1.78 µM; in assay [9] it was 1.57 µM; in assay [10], 1.66 µM. The TGI in [1] was determined as 1.87 µM; in assay [2] it was 2.85 µM; in assay [3], 2.31 µM; in assay [4], 3.68 µM; in assay [5] it was 0.898 µM; in [6] it was 3.29 µM. The TGI in assay [7] is 2.39 µM; in assay [8], 3.74 µM; in assay [9], 2.92 µM; in [10] it was 3.28 µM.

On to `O=S(=O)(c1ccccc1)N1CN2CN(C1)CN(S(=O)(=O)c1ccccc1)C2`, for which the TGI in assay [1], in assay [2], in [3], in assay [4], in assay [5] and in assay [6] was above 100 µM in each case. For the same molecule, the TGI in assay [7] was 66.1 µM; in [8] it was above 100 µM; in [9] it was above 100 µM; in [10], above 100 µM.

As for `CN(C)Cc1ccc(C(C)(C)C)cc1-c1cc(C(C)(C)C)ccc1CN(C)C`, the TGI in assay [1] is above 100 µM; in assay [2] it was above 100 µM; in [3], above 100 µM; in assay [4], above 100 µM; in assay [5] it was above 100 µM; in [6], 30.2 µM. Further, the TGI in assay [7], in assay [8], in assay [9] and in assay [10] was above 100 µM each time.

For `Cc1ccc(/C=C/c2c(C(=O)/C=C/c3ccc(Cl)cc3)c(C)nc3ccccc23)cc1`, the GI50 in [1] is 1.6 µM; in [2] it was 2.17 µM; in assay [3], 1.16 µM; in assay [4], 2.15 µM; in [5], 1.53 µM; in assay [6], 1.49 µM. Besides, the GI50 in [7] is 1.51 µM; in [8], 1.87 µM; in [9], 1.86 µM; in assay [10], 2.01 µM. The TGI came to 3.2 µM in assay [1]; 6.46 µM in assay [2]; 2.38 µM in assay [3]; 4.68 µM in [4]; 2.87 µM in [5]; 2.96 µM in assay [6]. For the same molecule, the TGI in [7] turned out to be 3.24 µM; in assay [8], 3.77 µM; in [9], 4.53 µM; in assay [10], 4.96 µM.

Turning to `COc1ccc(Cl)cc1Nc1nc(C(F)(F)F)ccc1C(=O)N/N=C/c1cccnc1`, the GI50 in [1] is 2.63 µM; in assay [2] it was 2.91 µM; in assay [3], 4.1 µM; in assay [4], 5.22 µM; in [5], 3.17 µM; in [6], 1.99 µM. In addition, the GI50 in assay [7] is 3.87 µM; in [8], 3.63 µM; in assay [9], 2.98 µM; in assay [10], 3.5 µM. Also, the TGI in assay [1] is above 100 µM; in assay [2], above 100 µM; in assay [3] it was above 100 µM; in [4], 75 µM; in assay [5], above 100 µM; in [6], above 100 µM. For the same molecule, the TGI was 49.7 µM in [7], above 100 µM in [8], above 100 µM in [9] and above 100 µM in [10].

For the molecule `COC1[C@H](NC(=O)OC(C)(C)C)C(=O)N1Cc1ccccc1` (stereo not given in full), the TGI in assay [1], in assay [2], in assay [3], in assay [4], in assay [5] and in assay [6] was above 100 µM each time. In addition, the TGI in [7], in [8], in assay [9] and in [10] was above 100 µM throughout.

With `O=CNc1ccc(S(=O)(=O)c2ccc(NC=O)cc2)cc1`, the TGI in assay [1], in assay [2], in [3], in assay [4], in assay [5] and in assay [6] was above 100 µM throughout. Further, the TGI in assay [7], in assay [8], in [9] and in assay [10] was above 100 µM each time.

Regarding `COc1ccc(Cn2cc3c(c2)-c2oncc2CC3)cc1OC`, the GI50 in assay [1] is 0.536 µM; in [2], 0.322 µM; in [3], 0.272 µM; in assay [4] it was 0.259 µM; in assay [5], 0.366 µM; in [6] it was 0.172 µM. For the same molecule, the GI50 in assay [7] is 0.123 µM; in assay [8], 0.18 µM; in assay [9] it was 0.233 µM; in assay [10], 0.248 µM. Also, the TGI in [1] is above 21.2 µM; in [2] it was above 31.7 µM; in assay [3], 23.8 µM; in [4], above 50 µM; in [5] it was above 50 µM; in [6], 2.54 µM. Further, the TGI in assay [7] was 0.761 µM; in assay [8] it was 1.27 µM; in [9] it was above 33.7 µM; in assay [10], 15.1 µM.

Regarding `O=C1c2ccccc2C(=O)c2c1ccc1c(=O)n(-c3ccccc3C(F)(F)F)nnc21`, the GI50 is 4.09 µM in assay [1]; 2.49 µM in assay [2]; 1.68 µM in assay [3]; 1.28 µM in assay [4]; 1.59 µM in assay [5]; 2.45 µM in assay [6]. The GI50 in assay [7] is 1.56 µM; in assay [8], 1.88 µM; in assay [9] it was 2.36 µM; in assay [10], 2.64 µM. The TGI in [1] is above 100 µM; in assay [2] it was above 100 µM; in assay [3], above 100 µM; in [4] it was 19.1 µM; in assay [5], 4.2 µM; in assay [6], 6.16 µM. For the same molecule, the TGI was 15.5 µM in assay [7], 5.5 µM in assay [8], 6.43 µM in [9] and 7.61 µM in assay [10].
